Results as given in PubChem BioAssay AID2060490 (Molecular Pharmacology Branch, DTP, NCI, 2025).

System: 885512-296-R-J2-PDC complex spheroid viability
Assay: Anticancer human tumor 885512-296-R-J2-PDC patient-derived breast carcinoma cell line growth inhibition [GQUAD]
Conditions: for IC50: curve of first compound; for viability, T/C: stronger effect = lower value; active = viability on the fitted dose curve at most 10% of control; inactive = the rest
Method in brief: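 Multi-cell-type spheroids of tumor cells with HUVEC and mesenchymal stem cells, treated with drug combinations. Concentrations descend in half-log steps from near clinical Cmax, or from 10 microM where Cmax is unknown; viability read-out.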

[1] = second compound 0.0316 µM, first compound 0.0316 µM
[2] = second compound 0.0316 µM, first compound 0.1 µM
[3] = second compound 0.0316 µM, first compound 0.316 µM
[4] = second compound 0.0316 µM, first compound 1 µM
[5] = second compound 0.0316 µM, first compound 3.16 µM
[6] = second compound 0.0316 µM, first compound 10 µM
[7] = second compound 0.1 µM, first compound 0.0316 µM
[8] = second compound 0.1 µM, first compound 0.1 µM
[9] = second compound 0.1 µM, first compound 0.316 µM
[10] = second compound 0.1 µM, first compound 1 µM
[11] = second compound 0.1 µM, first compound 3.16 µM
[12] = second compound 0.1 µM, first compound 10 µM
[13] = second compound 0.316 µM, first compound 0.0316 µM
[14] = second compound 0.316 µM, first compound 0.1 µM
[15] = second compound 0.316 µM, first compound 0.316 µM
[16] = second compound 0.316 µM, first compound 1 µM
[17] = second compound 0.316 µM, first compound 3.16 µM
[18] = second compound 0.316 µM, first compound 10 µM
[19] = second compound 1 µM, first compound 0.0316 µM
[20] = second compound 1 µM, first compound 0.1 µM
[21] = second compound 1 µM, first compound 0.316 µM
[22] = second compound 1 µM, first compound 1 µM
[23] = second compound 1 µM, first compound 3.16 µM
[24] = second compound 1 µM, first compound 10 µM
[25] = second compound 3.16 µM, first compound 0.0316 µM
[26] = second compound 3.16 µM, first compound 0.1 µM
[27] = second compound 3.16 µM, first compound 0.316 µM
[28] = second compound 3.16 µM, first compound 1 µM
[29] = second compound 3.16 µM, first compound 3.16 µM
[30] = second compound 3.16 µM, first compound 10 µM
[31] = second compound 10 µM, first compound 0.0316 µM
[32] = second compound 10 µM, first compound 0.1 µM
[33] = second compound 10 µM, first compound 0.316 µM
[34] = second compound 10 µM, first compound 1 µM
[35] = second compound 10 µM, first compound 3.16 µM
[36] = second compound 10 µM, first compound 10 µM
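Note: spheroids exposed to the compounds for one week.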
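Throughout, for viability, T/C: percent of tumor spheroid viability relative to DMSO vehicle control wells.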

CC(=O)O[C@H]1C(=O)[C@@]2(C)[C@H]([C@H](OC(=O)c3ccccc3)[C@]3(O)C[C@H](OC(=O)[C@H](O)[C@@H](NC(=O)c4ccccc4)c4ccccc4)C(C)=C1C3(C)C)[C@]1(OC(C)=O)CO[C@@H]1C[C@@H]2O + Cc1[nH]c2ccc(F)cc2c1-c1nc2c3cccnc3c3ncccc3c2[nH]1
176 nM: IC50 (second compound 0.1 µM)
148 nM: IC50 (second compound 0.0316 µM)
117 nM: IC50 (second compound 1 µM)
240 nM: IC50 (second compound 0.316 µM)
< 31.6 nM: IC50 (second compound 3.16 µM) | IC50 (second compound 10 µM)
active: viability, T/C [4] 3.76% | viability, T/C [5] 1% | viability, T/C [6] 0.76% | viability, T/C [10] 5.55% | viability, T/C [11] 0.13% | viability, T/C [12] 0.12% | viability, T/C [16] 5.11% | viability, T/C [17] 0.81% | viability, T/C [18] 0.08% | viability, T/C [22] 1.87% | viability, T/C [23] 0.21% | viability, T/C [24] 0.41% | viability, T/C [25] 3.83% | viability, T/C [26] 6.17% | viability, T/C [27] 8.48% | viability, T/C [28] 0.24% | viability, T/C [29] 0.53% | viability, T/C [30] 0.46% | viability, T/C [31] 1.53% | viability, T/C [32] 1.57% | viability, T/C [33] 4.36% | viability, T/C [34] 0.21% | viability, T/C [35] 0.84% | viability, T/C [36] 1.07%
inactive: viability, T/C [1] 100% | viability, T/C [2] 67.2% | viability, T/C [3] 16.9% | viability, T/C [7] 90.5% | viability, T/C [8] 77.2% | viability, T/C [9] 21.5% | viability, T/C [13] 78.4% | viability, T/C [14] 70.6% | viability, T/C [15] 43.7% | viability, T/C [19] 52.8% | viability, T/C [20] 58.1% | viability, T/C [21] 16.4%

COc1cc(C2c3cc4c(cc3C(OC3OC5COC(C)OC5C(O)C3O)C3COC(=O)C23)OCO4)cc(OC)c1O (stereo unspecified) + CN(C)c1ccc(Nc2c3ccc(NC(=O)CCN4CCCC4)cc3nc3cc(NC(=O)CCN4CCCC4)ccc23)cc1
584 nM: IC50 (second compound 0.316 µM)
active: viability, T/C [6] 8.11% | viability, T/C [12] 9.28% | viability, T/C [18] 7.51% | viability, T/C [24] 7.5% | viability, T/C [36] 8.35%
inactive: viability, T/C [1] 106% | viability, T/C [2] 96.7% | viability, T/C [3] 73% | viability, T/C [4] 30.5% | viability, T/C [5] 13.4% | viability, T/C [7] 106% | viability, T/C [8] 94.4% | viability, T/C [9] 77.1% | viability, T/C [10] 33.1% | viability, T/C [11] 13.5% | viability, T/C [13] 100% | viability, T/C [14] 111% | viability, T/C [15] 73.3% | viability, T/C [16] 28.8% | viability, T/C [17] 13% | viability, T/C [19] 88.4% | viability, T/C [20] 97.5% | viability, T/C [21] 72.5% | viability, T/C [22] 28.2% | viability, T/C [23] 13.1% | viability, T/C [25] 88.5% | viability, T/C [26] 83.8% | viability, T/C [27] 78.8% | viability, T/C [28] 28.8% | viability, T/C [29] 14.4% | viability, T/C [30] 10.3% | viability, T/C [31] 18.7% | viability, T/C [32] 24% | viability, T/C [33] 22.1% | viability, T/C [34] 11.4% | viability, T/C [35] 10.1%
< 31.6 nM: IC50 (second compound 10 µM)
641 nM: IC50 (second compound 0.1 µM)
574 nM: IC50 (second compound 1 µM)
614 nM: IC50 (second compound 3.16 µM)
590 nM: IC50 (second compound 0.0316 µM)

COc1ccc([C@@H](O)c2cc(-c3ncnc4cc(N5CCOCC5)ccc34)c(F)cc2Cl)nn1 + Cc1cnc(CNC(=O)c2c(=O)c3ccc(N4CCCN(C)CC4)nc3n3c2sc2ccccc23)cn1
active: viability, T/C [31] 0.11% | viability, T/C [32] 0.2% | viability, T/C [33] 0.17% | viability, T/C [34] 0.15% | viability, T/C [35] 0.18% | viability, T/C [36] 0.19%
inactive: viability, T/C [1] 93.6% | viability, T/C [2] 73.1% | viability, T/C [3] 50% | viability, T/C [4] 25.6% | viability, T/C [5] 32% | viability, T/C [6] 29.4% | viability, T/C [7] 67.1% | viability, T/C [8] 54.7% | viability, T/C [9] 28.2% | viability, T/C [10] 30% | viability, T/C [11] 33.1% | viability, T/C [12] 29.2% | viability, T/C [13] 26.1% | viability, T/C [14] 21.2% | viability, T/C [15] 24.2% | viability, T/C [16] 24.6% | viability, T/C [17] 24.8% | viability, T/C [18] 23.8% | viability, T/C [19] 21.8% | viability, T/C [20] 26.6% | viability, T/C [21] 21.9% | viability, T/C [22] 24.3% | viability, T/C [23] 29.9% | viability, T/C [24] 18.9% | viability, T/C [25] 24.8% | viability, T/C [26] 25.4% | viability, T/C [27] 25.1% | viability, T/C [28] 22.7% | viability, T/C [29] 23.2% | viability, T/C [30] 17.2%
274 nM: IC50 (second compound 0.0316 µM)
125 nM: IC50 (second compound 0.1 µM)
< 31.6 nM: IC50 (second compound 0.316 µM) | IC50 (second compound 1 µM) | IC50 (second compound 3.16 µM) | IC50 (second compound 10 µM)
